Where “and” joins values, the source holds several entries; their conditions need not be identical. Equal values may be shown once. Read-outs that look alike come from different tables or passages of the source.
Tests used:
Vero E6 cells = conditions: cited from earlier work
virus-infected cells = conditions: cited from earlier work
influenza virus = format: in vivo, mice
in vitro = conditions: African green monkey
[1] = tested on: BCR-ABL1 expressing Ba/F3; conditions: read-out: IC50 Cellular Activity (BCR-ABL1 expressing Ba/F3)
SARS-CoV-2 = assay: microbe, parasite or virus in culture; format: cell-based; conditions: for IC50: Severe acute respiratory syndrome coronavirus 2, Vero; for Max Inhibition (%): Vero cells, MOI 0.0125, 24 hpi, at the Max Conc. of each compound (5, 50 or 150 uM)
RIPK1 = molecular target: T1, RIPK1 (Homo sapiens, UniProt Q13546); assay: RIPK1 kinase assay (Promega RIPK1 Kinase Enzyme System kit); format: biochemical; conditions: cell free assay
T1 sequence (Q13546 1-327 limits assumed): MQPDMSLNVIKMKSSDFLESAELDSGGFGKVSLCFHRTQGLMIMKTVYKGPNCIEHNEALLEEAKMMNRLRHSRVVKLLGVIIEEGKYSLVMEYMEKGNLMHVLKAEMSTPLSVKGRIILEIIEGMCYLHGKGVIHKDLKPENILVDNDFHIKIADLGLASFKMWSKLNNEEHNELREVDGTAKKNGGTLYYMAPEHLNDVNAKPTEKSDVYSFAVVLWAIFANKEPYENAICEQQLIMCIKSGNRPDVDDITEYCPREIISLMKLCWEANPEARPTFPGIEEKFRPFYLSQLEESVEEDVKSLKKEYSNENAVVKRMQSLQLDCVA

ABL1-nonphosphorylated = ABL1-nonphosphorylated (Homo sapiens, UniProt P00519); assay: Compound 1 kinase inhibition activity (% Ctrl), ABL1-nonphosphorylated; format: biochemical
ABL1-phosphorylated = ABL1-phosphorylated (Homo sapiens, UniProt P00519); assay: Compound 1 kinase inhibition activity (% Ctrl), ABL1-phosphorylated; format: biochemical
[2] = tested on: cytokines associated with influenza virus induced cytokine storm; assay: Inhibition of cytokines associated with influenza virus induced cytokine storm, U937 cells, Luminex assay; format: cell-based; conditions: U937 cells infected with influenza virus, MOI 0.1, 24 hours treatment
Procedure: Following the method described in Front Immunol. 2019 Jun. 21; 1393 and Am. J. Physiol., Lung Cell Mol. Physiol. 315: L52-L58, 2018, U937 cells were infected with influenza virus at a MOI of 0.1 and treated with indicated concentrations of Compound 1 and Compound 2. The supernatant of cells was harvested after 24 hours treatment and the production of indicated cytokines were determined using Luminex assay. The method and results are shown below in FIG. 7 and FIGS. 8A-8C. Survival of influenza virus (IFV) infected mice are shown Table 4 and in FIGS. 9A-9B.

BCR-ABL1 kinase = BCR-ABL1 kinase (Homo sapiens, UniProt P00519); assay: biochemical
ABL2 = ABL2 (Homo sapiens, UniProt P42684); assay: Compound 1 kinase inhibition activity (% Ctrl), ABL2; format: biochemical
IL-8, IP-10, MCP-1 = conditions: cytokines associated with influenza-induced cytokine storm; cited from earlier work
SARS-CoV [3] = conditions: Vero E6 cells; cited from earlier work
MERS-CoV [4] = conditions: Vero E6 cells; cited from earlier work
MERS-CoV [5] = conditions: Vero E6 and MRC5 cells; cited from earlier work
SARS-CoV [6] = conditions: Vero E6 and Calu-3 cells; cited from earlier work
HBV [7] = assay: Virus clearance in pAAV-HBV 1.3 model; format: in vivo; conditions: injection, C57BL/6J mice
[8] = tested on: HepG2.2.15 liver cancer cell line; assay: Apoptotic induction in HepG2.2.15 liver cancer cell line; format: cell-based; conditions: combination with TNF-α
Text: (§1) Similar to the above mentioned IAP inhibitors, Compound 2 of the present invention is a potent IAP inhibitor and can promote apoptosis, and thus could be a potential antiviral compound for coronavirus infection treatment. FIGS. 1A-1C show the effect of Compound 2 on apoptotic induction, IAPs expression, and HBV replication and gene expression in HepG2.2.15 liver cancer cell line.

IAPs = IAPs expression in HepG2.2.15 liver cancer cell line; format: cell-based
Text: as §1

HBV [9] = assay: HBV replication in HepG2.2.15 liver cancer cell line; format: cell-based
Text: as §1

HBV [10] = assay: HBV models in mice: hepatocyte apoptosis and liver immune readouts; format: in vivo
[11] = tested on: influenza A virus (IAV) infected cells; conditions: caspase-mediate apoptosis pathway; cited from earlier work
HBV [12] = conditions: mouse model of chronic HBV infection; cited from earlier work

Chain of ABL1-phosphorylated (P00519 whole entry): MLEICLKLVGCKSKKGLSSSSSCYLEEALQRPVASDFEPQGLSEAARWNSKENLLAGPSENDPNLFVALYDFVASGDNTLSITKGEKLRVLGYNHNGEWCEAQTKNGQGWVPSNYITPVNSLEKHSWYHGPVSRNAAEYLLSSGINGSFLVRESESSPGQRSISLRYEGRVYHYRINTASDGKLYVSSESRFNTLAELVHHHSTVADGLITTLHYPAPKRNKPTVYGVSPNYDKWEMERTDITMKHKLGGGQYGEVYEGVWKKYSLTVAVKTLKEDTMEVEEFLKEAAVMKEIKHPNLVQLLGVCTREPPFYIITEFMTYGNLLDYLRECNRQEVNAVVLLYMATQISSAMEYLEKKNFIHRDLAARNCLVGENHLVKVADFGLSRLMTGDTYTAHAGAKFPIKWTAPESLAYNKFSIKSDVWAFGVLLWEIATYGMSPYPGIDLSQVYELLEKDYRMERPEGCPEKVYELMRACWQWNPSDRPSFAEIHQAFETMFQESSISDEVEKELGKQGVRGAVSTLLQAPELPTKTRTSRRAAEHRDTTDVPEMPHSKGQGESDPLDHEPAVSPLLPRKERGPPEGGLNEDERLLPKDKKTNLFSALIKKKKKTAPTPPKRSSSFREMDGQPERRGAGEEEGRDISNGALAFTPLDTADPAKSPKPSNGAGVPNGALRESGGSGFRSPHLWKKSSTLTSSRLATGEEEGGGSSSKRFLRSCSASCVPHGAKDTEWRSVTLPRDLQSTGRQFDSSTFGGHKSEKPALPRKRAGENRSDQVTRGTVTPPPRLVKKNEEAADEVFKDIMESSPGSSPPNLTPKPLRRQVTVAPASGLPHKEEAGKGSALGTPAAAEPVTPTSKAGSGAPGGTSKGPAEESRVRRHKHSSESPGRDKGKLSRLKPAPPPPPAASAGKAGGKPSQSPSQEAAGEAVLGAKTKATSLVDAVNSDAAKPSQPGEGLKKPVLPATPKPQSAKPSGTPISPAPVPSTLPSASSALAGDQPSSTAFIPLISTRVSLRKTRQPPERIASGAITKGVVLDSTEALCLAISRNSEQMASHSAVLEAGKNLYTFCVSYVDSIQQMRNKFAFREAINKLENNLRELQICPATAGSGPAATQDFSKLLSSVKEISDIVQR
Chain of ABL1-nonphosphorylated (P00519 whole entry): as above
Chain of ABL2 (P42684 whole entry, species assumed): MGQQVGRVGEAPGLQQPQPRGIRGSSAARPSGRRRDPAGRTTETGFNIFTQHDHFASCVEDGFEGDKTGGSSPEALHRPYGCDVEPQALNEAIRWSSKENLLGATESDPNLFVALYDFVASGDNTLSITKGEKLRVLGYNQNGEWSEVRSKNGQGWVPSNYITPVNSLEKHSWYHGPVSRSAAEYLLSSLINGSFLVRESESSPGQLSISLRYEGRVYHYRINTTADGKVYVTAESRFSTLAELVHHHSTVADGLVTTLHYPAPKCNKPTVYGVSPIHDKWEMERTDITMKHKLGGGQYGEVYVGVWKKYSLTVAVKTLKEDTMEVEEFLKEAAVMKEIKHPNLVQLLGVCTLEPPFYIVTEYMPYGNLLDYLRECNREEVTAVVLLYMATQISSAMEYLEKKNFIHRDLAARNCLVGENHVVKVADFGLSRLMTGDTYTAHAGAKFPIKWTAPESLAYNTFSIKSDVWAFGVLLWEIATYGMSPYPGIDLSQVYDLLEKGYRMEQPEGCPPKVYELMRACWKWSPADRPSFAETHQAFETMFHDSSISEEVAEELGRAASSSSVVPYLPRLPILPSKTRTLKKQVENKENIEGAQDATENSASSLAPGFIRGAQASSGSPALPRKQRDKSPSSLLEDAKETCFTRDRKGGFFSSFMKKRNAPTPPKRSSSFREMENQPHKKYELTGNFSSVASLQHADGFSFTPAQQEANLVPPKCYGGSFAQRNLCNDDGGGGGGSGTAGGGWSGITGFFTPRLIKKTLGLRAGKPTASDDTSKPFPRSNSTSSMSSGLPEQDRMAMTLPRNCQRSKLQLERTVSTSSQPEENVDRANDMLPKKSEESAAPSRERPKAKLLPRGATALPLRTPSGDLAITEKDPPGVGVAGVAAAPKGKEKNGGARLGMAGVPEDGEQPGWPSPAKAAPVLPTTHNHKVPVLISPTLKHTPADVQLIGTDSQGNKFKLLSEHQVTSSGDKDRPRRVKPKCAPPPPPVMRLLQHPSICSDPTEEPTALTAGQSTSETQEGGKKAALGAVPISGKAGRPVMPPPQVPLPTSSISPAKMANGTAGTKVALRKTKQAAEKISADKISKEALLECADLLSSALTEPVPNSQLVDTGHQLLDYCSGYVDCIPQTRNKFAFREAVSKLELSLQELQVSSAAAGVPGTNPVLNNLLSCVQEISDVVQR
Chain of BCR-ABL1 kinase (P00519 27-1130): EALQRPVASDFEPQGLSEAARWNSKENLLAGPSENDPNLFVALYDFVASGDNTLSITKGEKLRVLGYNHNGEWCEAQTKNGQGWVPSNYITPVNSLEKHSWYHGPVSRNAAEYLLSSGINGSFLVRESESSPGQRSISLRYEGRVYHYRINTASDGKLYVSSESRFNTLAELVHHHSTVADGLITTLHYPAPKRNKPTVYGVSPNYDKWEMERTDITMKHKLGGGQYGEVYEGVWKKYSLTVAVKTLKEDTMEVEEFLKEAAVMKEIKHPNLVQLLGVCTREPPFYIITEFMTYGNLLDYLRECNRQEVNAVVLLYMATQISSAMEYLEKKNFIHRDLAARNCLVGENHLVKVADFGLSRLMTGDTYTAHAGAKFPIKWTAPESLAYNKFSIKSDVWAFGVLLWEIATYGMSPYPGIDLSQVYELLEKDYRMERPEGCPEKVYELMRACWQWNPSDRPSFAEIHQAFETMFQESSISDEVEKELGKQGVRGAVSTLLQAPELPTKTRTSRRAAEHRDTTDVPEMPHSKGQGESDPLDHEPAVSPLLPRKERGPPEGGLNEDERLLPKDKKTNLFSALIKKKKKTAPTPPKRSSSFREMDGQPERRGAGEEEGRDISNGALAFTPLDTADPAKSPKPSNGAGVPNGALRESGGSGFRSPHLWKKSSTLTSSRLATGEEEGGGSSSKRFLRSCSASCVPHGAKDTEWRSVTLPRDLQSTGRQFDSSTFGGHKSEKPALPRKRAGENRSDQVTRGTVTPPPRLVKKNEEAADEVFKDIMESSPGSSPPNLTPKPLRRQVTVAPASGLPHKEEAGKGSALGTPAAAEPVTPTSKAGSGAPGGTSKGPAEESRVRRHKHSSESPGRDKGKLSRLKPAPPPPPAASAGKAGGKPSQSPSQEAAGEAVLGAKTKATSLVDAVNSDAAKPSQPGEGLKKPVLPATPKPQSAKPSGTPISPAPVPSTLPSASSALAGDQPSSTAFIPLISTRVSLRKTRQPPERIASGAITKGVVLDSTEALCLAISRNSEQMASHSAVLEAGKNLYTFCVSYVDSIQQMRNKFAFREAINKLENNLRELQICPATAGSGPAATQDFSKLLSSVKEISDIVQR

For Cc1nc(Nc2ncc(C(=O)Nc3c(C)cccc3Cl)s2)cc(N2CCN(CCO)CC2)n1 [Dasatinib], the cytotoxicity (Vero E6 cells) is listed as “low cytotoxicity”.

In the case of CC1(C)CCC(c2ccc(Cl)cc2)=C(CN2CCN(c3ccc(C(=O)NS(=O)(=O)c4ccc(N[C@H](CCN5CCOCC5)CSc5ccccc5)c(S(=O)(=O)C(F)(F)F)c4)cc3)CC2)C1 [ABT-236], the “apoptosis in virus-infected cells” value (virus-infected cells) is given as “accelerate apoptosis in virus-infected cells”.

For Cc1ccc(C(=O)Nc2ccc(CN3CCN(C)CC3)c(C(F)(F)F)c2)cc1C#Cc1cnc2cccnn12 [Ponatinib], the “Day 21 Survival number” value (influenza virus; mouse, in vivo) was 2 and 1 and the “Survival rate (%)” value (influenza virus; mouse, in vivo) was 22.22% and 11.11%.

With Cc1ccc(C(=O)Nc2ccc(CN3CCN(C)CC3)c(C(F)(F)F)c2)cc1C#Cc1cnc2[nH]ncc2c1 [Compound 1, 3-(2-(1H-pyrazolo[3,4-b]pyridin-5-yl)ethynyl)-4-methyl-N-(4-((4-methylpiperazin-1-yl)methyl)-3-(trifluoromethyl)phenyl)-benzamide] the CC50 (in vitro) was > 5 µM, the IC50 [1] was 0.006 ± 0.003 µM and the “survival of influenza virus infected mice” value (influenza virus; at the amounts of 5 mg/kg or 10 mg/kg) was “improves the survival of influenza virus infected mice”. The “Day 21 Survival number” value (influenza virus; mouse, in vivo) was 1 and 2, the “Survival rate (%)” value (influenza virus; mouse, in vivo) was 11.11% and 22.22% and the IC50 (SARS-CoV-2) was 1.32 µM. For the same compound, the “SARS-CoV-2 infection in Vero cell” value (SARS-CoV-2; result in words) was “inhibits SARS-CoV-2 infection in Vero cell”, the IC50 (RIPK1) was 0.054 µM and the remaining activity at 0.01 µM (ABL1-nonphosphorylated; read-out: % Ctrl @ 10 nM) was 4.4%. For the same compound, the remaining activity at 0.1 µM (ABL1-nonphosphorylated; read-out: % Ctrl @ 100 nM) was 0.1%, the remaining activity at 1 µM (ABL1-nonphosphorylated; read-out: % Ctrl @ 1000 nM) was 0% and the remaining activity at 0.01 µM (ABL1-phosphorylated; read-out: % Ctrl @ 10 nM) was 3%. The remaining activity at 0.1 µM (ABL1-phosphorylated; read-out: % Ctrl @ 100 nM) was 0%, the remaining activity at 1 µM (ABL1-phosphorylated; read-out: % Ctrl @ 1000 nM) was 0% and the “production of cytokines associated with influenza induced cytokine storm” value [2] was “inhibits the production of cytokines associated with influenza induced cytokine storm”. It also gave an IC50 (BCR-ABL1 kinase) of 0.0003 ± 4.5e-06 µM, a remaining activity at 0.01 µM (ABL2; 10 nM) of 2.6% and a remaining activity at 0.1 µM (ABL2; 100 nM) of 0%. The remaining activity at 1 µM (ABL2; 1000 nM) was 0%.

In the case of Cc1cccc(C)c1OCC(=O)N[C@@H](Cc1ccccc1)[C@@H](O)C[C@H](Cc1ccccc1)NC(=O)[C@H](C(C)C)N1CCCNC1=O [Lopinavir], the CC50 (in vitro) is reported as > 50 µM, the IC50 (SARS-CoV-2) is reported as 17.3 µM and the “Max Inhibition (%)” value (SARS-CoV-2) is reported as 99.93%.

For CCN(CC)CCCC(C)Nc1ccnc2cc(Cl)ccc12 (stereo not drawn) [Chloroquine], the CC50 (in vitro) was > 150 µM, the IC50 (SARS-CoV-2) was 13 µM and the “Max Inhibition (%)” value (SARS-CoV-2) was 100.01%.

In the case of Cc1cn(-c2cc(NC(=O)c3ccc(C)c(Nc4nccc(-c5cccnc5)n4)c3)cc(C(F)(F)F)c2)cn1 [Nilotinib, reference compound], the IC50 [1] is given as 0.01 ± 0.003 µM and the “production of IL-8, IP-10 and MCP-1” value (IL-8, IP-10, MCP-1) is given as “inhibit the production”.

For Cc1ccc(NC(=O)c2ccc(CN3CCN(C)CC3)cc2)cc1Nc1nccc(-c2cccnc2)n1 [Imatinib], the “inhibition of SARS-CoV” value (SARS-CoV [3]) is given as “inhibit”, the “inhibition of MERS-CoV” value (MERS-CoV [4]) is given as “inhibit” and the “virus production of MERS-CoV” value (MERS-CoV [5]) is given as “showed inhibition”. For the same compound, the “virus production of SARS-CoV” value (SARS-CoV [6]) was “showed inhibition” and the cytotoxicity (Vero E6 cells) was “low cytotoxicity”.

With CCOC(=O)C1=C[C@@H](OC(CC)CC)[C@H](NC(C)=O)[C@@H](N)C1 [Oseltamivir] the “Survival rate (%)” value (influenza virus; 10 mpk, QD, 2 hr prior to infection, day 21) was 100% and the “Day 21 Survival number” value (influenza virus; 10 mpk, QD, 2 hr prior to infection, of 9 animals) was 9.

With CN[C@@H](C)C(=O)N[C@H]1CN(S(=O)(=O)c2cccc(S(=O)(=O)N3CC[C@H]4CC[C@@H](C(=O)NC(c5ccccc5)c5ccccc5)N4C(=O)[C@@H](NC(=O)[C@H](C)NC)C3)c2)CC[C@H]2CC[C@@H](C(=O)NC(c3ccccc3)c3ccccc3)N2C1=O [Compound 2, (5S,5′S,8S,8′S,10aR,10a′R)-3,3′-(1,3-phenylenedisulfonyl)bis(N-benzhydryl-5-((S)-2-(methylamino)propanamido)-6-oxodecahydropyrrolo[1,2-a][1,5]diazocine-8-carboxamide)] the CC50 (in vitro) was > 50 µM, the IC50 (SARS-CoV-2) was > 50 µM and the “Max Inhibition (%)” value (SARS-CoV-2) was 25.93%. The “production of cytokines associated with influenza induced cytokine storm” value [2] was “inhibits the production of cytokines associated with influenza induced cytokine storm”, the virus clearance (HBV [7]) was “promotes virus clearance” and the apoptosis pathway activation [8] was “significantly activate apoptosis pathway”. The “expression of IAPs” value (IAPs) was “inhibits the expression of IAPs in a dose-dependent manner”, the virus replication (HBV [9]; high concentrations) was “impair enhancement of virus replication” and the virus replication (HBV [9]; low concentrations) was “increased virus replication”. The “apoptosis in the HBV-infected (HBsAg+) hepatocytes” value (HBV [10]; HBV models in mice) was “specifically induced apoptosis”, the “expression of IFN-γ and TNF-α” value (HBV [10]; liver tissue of HBV models) was “promotes the expression of IFN-γ and TNF-α” and the “number of CD4+ and CD8+ T cells” value (HBV [10]; liver tissue of HBV models) was “promotes”.

With CCC(CC)COC(=O)[C@H](C)N[P@](=O)(OC[C@H]1O[C@@](C#N)(c2ccc3c(N)ncnn23)[C@H](O)[C@@H]1O)Oc1ccccc1 [Remdesivir] the CC50 (in vitro) was > 50 µM, the IC50 (SARS-CoV-2) was 12.4 µM and the “Max Inhibition (%)” value (SARS-CoV-2) was 95.01%.

For CC1(C)CCC(c2ccc(Cl)cc2)=C(CN2CCN(c3ccc(C(=O)NS(=O)(=O)c4ccc(N[C@H](CCN5CCOCC5)CSc5ccccc5)c(S(=O)(=O)C(F)(F)F)c4)cc3)CC2)C1 [ABT-263], the “apoptosis in virus-infected cells” value [11] is given as “accelerates apoptosis in virus-infected cells”.

In the case of CC[C@H](NC(=O)[C@H](C)NC)C(=O)N1C[C@@H](O)C[C@H]1Cc1c(-c2[nH]c3cc(F)ccc3c2C[C@@H]2C[C@H](O)CN2C(=O)[C@H](CC)NC(=O)[C@H](C)NC)[nH]c2cc(F)ccc12 [Birinapant], the “elimination of hepatocytes containing HBV core antigen” value (HBV [12]) is listed as “promote the elimination”, the “serum HBV DNA” value (HBV [12]) is listed as “rapidly reduce” and the “serum HBV surface antigen” value (HBV [12]) is listed as “rapidly reduce”. The virus replication (HBV [9]; high concentrations) was “impair enhancement of virus replication” and the virus replication (HBV [9]; low concentrations) was “increased virus replication”.

For CN(C)CC[C@H](CSc1ccccc1)Nc1ccc(S(=O)(=O)NC(=O)c2ccc(N3CCN(Cc4ccccc4-c4ccc(Cl)cc4)CC3)cc2)cc1[N+](=O)[O-] [ABT-737], the “apoptosis in virus-infected cells” value (virus-infected cells) is given as “accelerate apoptosis in virus-infected cells”.
